Results on 21 compounds are retold here after PMC6273394, “Discovery of a New Class of Sortase A Transpeptidase Inhibitors to Tackle Gram-Positive Pathogens: 2-(2-Phenylhydrazinylidene)alkanoic Acids and Related Derivatives” (Molecules, 2016).

What is called IC50 is the concentration at which inhibition is half-maximal. For orientation: inhibition means the relative decrease from the control value, in per cent. A word on the melting point: it is the temperature of the solid-liquid transition.

Where two headings read alike, the source gives them in different places.

One data set has as its target S. aureus SrtA (Staphylococcus aureus, UniProt Q2FV99). Description: biochemical.
A further data set deals with S. aureus ATCC 25923. The data set is described as follows: Interference with biofilm formation assay (safranin method). The data set is classed as cell-based. The note with it: 100 µM compound, 24 h at 37 °C; for inhibition at 100 µM: Staphylococcus aureus, ATCC25923, 24 h, read-out: Percentages of Inhibition of Biofilm Formation S. aureus 25923. The protocol:
(§1) The reference strains S. aureus ATCC 29213, S. aureus ATCC 25923, S. aureus ATCC 6538 and S. epidermidis RP62A were used in the assays.
(§2) The staphylococcal strains were tested for their ability to form biofilms. Briefly, bacteria were grown in TSB containing 2% glucose overnight at 37 °C in a shaking bath and then diluted 1:200 to a suspension with optical density (OD) of about 0.040 at 570 nm. Polystyrene 24-well tissue culture plates were filled with 1 mL of diluted suspension and incubated for 24 h at 37 °C. The wells were then washed three times with 1 mL of sterile phosphate-buffered saline (PBS) and stained with 1 mL of safranin 0.1% v/v for 1 min. The excess stain was removed by placing the plates under running tap water. Plates were dried overnight in an inverted position at 37 °C. Safranin-stained adherent bacteria in each well were re-dissolved to homogeneity in 1 mL of 30% v/v glacial acetic acid, and the OD was read at 492 nm. Each assay was performed in triplicate and repeated at least twice.
(§3) The procedure described above was used to evaluate the activity of phenyl-hydrazinylidene-derivatives in the prevention of biofilm formation. Polystyrene 24-well tissue culture plates were filled with 1 mL of diluted bacterial suspension, obtained and diluted as previously described, and a concentration of 100 µM of each compound was directly added to the bacterial suspension at time zero and incubated at 37 °C for 24 h. The wells were then washed and stained with safranin as per the biofilm forming assay. By comparing the average optical density (O.D.) of the growth control wells with the sample wells, the following formula was used to calculate the percentages of inhibition for each concentration of the sample: (2) Inhibition (%)=OD growth control−OD sample/OD growth control×100
(§4) Each assay was performed in triplicate and assays were repeated at least twice.

A further data set concerns S. epidermidis RP62A. The data set is described as above. The data set is classed as cell-based. The note with it: 100 µM compound, 24 h at 37 °C; for inhibition at 100 µM: Staphylococcus epidermidis, RP62A, 24 h, read-out: Percentages of Inhibition of Biofilm Formation S. epidermidis RP62A. As for the experimental part: as §1, §2, §3, §4
A further data set has as its system S. aureus ATCC 6538. The description is as above. The data set is classed as cell-based. Particulars: 100 µM compound, 24 h at 37 °C; for inhibition at 100 µM: Staphylococcus aureus, ATCC6538, 24 h, read-out: Percentages of Inhibition of Biofilm Formation S. aureus 6538. The protocol: as §1, §2, §3, §4
A further data set deals with S. aureus ATCC 29213. The description is as above. The data set is classed as cell-based. The note with it: 100 µM compound, 24 h at 37 °C; for inhibition at 100 µM: Staphylococcus aureus, ATCC29213, 24 h, read-out: Percentages of Inhibition of Biofilm Formation S. aureus 29213. As for the experimental part: as §1, §2, §3, §4

S. aureus SrtA, sequence (Q2FV99 60-206): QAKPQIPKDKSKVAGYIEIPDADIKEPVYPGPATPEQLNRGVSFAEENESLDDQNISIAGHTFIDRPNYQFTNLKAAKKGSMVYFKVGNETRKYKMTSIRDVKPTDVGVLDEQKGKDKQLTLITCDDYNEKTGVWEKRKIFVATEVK

Compound `CC(=O)/C(=N/Nc1cccc(Cl)c1)C(=O)O` [Compound 5c, (2Z)-3-Oxo-2-(2-(3-chlorophenyl)hydrazinylidene)butanoic acid] gave an IC50 at S. aureus SrtA of 87 µM. The inhibition at 100 µM was determined as 41.1 ± 0.7% in the data set on S. aureus ATCC 25923, 22.9 ± 1.3% with S. epidermidis RP62A, 30.3 ± 0.4% in the data set with S. aureus ATCC 6538 and 69 ± 4.6% in the data set on S. aureus ATCC 29213.

For `CCOC(=O)/C(=N/Nc1ccccc1)C(C)=O` [Compound 1a, Ethyl (2E)-3-Oxo-2-(2-phenylhydrazinylidene)butanoate], the melting point was 78 to 80 °C. For the same compound, the IC50 against S. aureus SrtA was 192 µM.

`CCOC(=O)/C(=N\Nc1ccc([N+](=O)[O-])cc1)C(C)=O` [Compound 1d, Ethyl (2Z)-3-Oxo-2(2-(4-nitrophenyl)hydrazinylidene)butanoate] yielded a melting point of 120 to 122 °C. Half-maximal inhibition on S. aureus SrtA (IC50) was put at 100 µM.

Take `CC(=O)/C(C#N)=N/Nc1ccccc1` [Compound 6a, (2E)-3-Oxo-2-(2-phenylhydrazinylidene)butanenitrile]: at S. aureus SrtA, the IC50 amounted to 80 µM. Moreover, the inhibition at 100 µM was found to be 45.1 ± 2.9% in the data set on S. aureus ATCC 25923, 34.8 ± 1.8% with S. epidermidis RP62A, 51 ± 0.9% with S. aureus ATCC 6538 and 46.2 ± 2.3% with S. aureus ATCC 29213.

On to `CC(=O)/C(=N/Nc1ccc(Cl)c(Cl)c1)C(=O)O` [Compound 5b, (2Z)-3-Oxo-2-(2-(3,4-dichlorophenyl)hydrazinylidene)butanoic acid], for which the IC50 on S. aureus SrtA worked out at 50 µM. Also, the inhibition at 100 µM turned out to be 39.2 ± 1.4% in the data set with S. aureus ATCC 25923, 29.1 ± 1.4% in the data set on S. epidermidis RP62A, 22 ± 0.9% with S. aureus ATCC 6538 and 71.3 ± 6.4% with S. aureus ATCC 29213.

Regarding `CCOC(=O)/C(=N/Nc1ccc(Cl)c(Cl)c1)C(C)=O` [Compound 1b, Ethyl (2E)-3-Oxo-2-(2-(3,4-dichlorophenyl)hydrazinylidene)butanoate], the melting point was in the range of 100 to 102 °C. Moreover, the IC50 on S. aureus SrtA is more than 500 µM.

Compound `O=C(O)/C(=N\Nc1ccc(Cl)c(Cl)c1)C(=O)c1ccccc1` [Compound 5h, (2Z)-3-Oxo-2-(2-(3,4-dichlorophenyl)hydrazinylidene)-3-phenylpropanoic acid] came in with a melting point of 202 to 204 °C. The compound further registered an IC50 on S. aureus SrtA of 100 µM. Besides, the inhibition at 100 µM in the data set with S. aureus ATCC 25923 amounted to 55.9 ± 2.6%. Besides, in the data set with S. epidermidis RP62A, the inhibition at 100 µM came out at 45.4 ± 1.6%. Moreover, the inhibition at 100 µM in the data set on S. aureus ATCC 6538 was found to be 70.1 ± 2.1%. In addition, in the data set with S. aureus ATCC 29213, the inhibition at 100 µM worked out at 42.7 ± 3.7%.

With `O=C(O)/C(=N\Nc1ccccc1)C(=O)c1ccccc1` [Compound 5g, (2Z)-3-Oxo-3-phenyl-2-(2-phenylhydrazinylidene)propanoic acid], the melting point lay in the range of 136 to 138 °C. The compound also had an IC50 against S. aureus SrtA of 98 µM. In addition, the inhibition at 100 µM in the data set with S. aureus ATCC 25923 was determined as 36.8 ± 2.1%. The inhibition at 100 µM with S. epidermidis RP62A amounted to 23.7 ± 0.7%. In addition, in the data set with S. aureus ATCC 6538, the inhibition at 100 µM is 41.9 ± 1.7%. The inhibition at 100 µM in the data set on S. aureus ATCC 29213 worked out at 36.9 ± 1.2%.

`CCOC(=O)/C(=N/Nc1cccc(Cl)c1)C(C)=O` [Compound 1c, Ethyl (2E)-3-Oxo-2(2-(3-chlorophenyl)hydrazinylidene)butanoate] gave a melting point of 70 to 72 °C. In addition, on S. aureus SrtA, the IC50 is more than 500 µM.

`CCOC(=O)/C(=N\Nc1ccccc1)C(=O)c1ccccc1` [Compound 1g, Ethyl (2Z)-3-Oxo-3-phenyl-2-(2-phenylhydrazinylidene)propanoate]: the IC50 at S. aureus SrtA (read-out: IC50 (activity as sortase A inhibitors), 10 µM S. aureus sortase A, preincubated 1 h at 37 °C, 50 µM dabcyl-QALPETGEE-edans substrate) was more than 500 µM.

For the compound `CC(=O)/C(=N/Nc1ccc([N+](=O)[O-])cc1)C(=O)O` [Compound 5d, (2Z)-3-Oxo-2-(2-(4-nitrophenyl)hydrazinylidene)butanoic acid], at S. aureus SrtA, inhibition was half-maximal at 57 µM (IC50). Also, the inhibition at 100 µM in the data set on S. aureus ATCC 25923 was determined as 45.3 ± 1.7%; in the data set on S. epidermidis RP62A, 48.6 ± 1.6%; in the data set on S. aureus ATCC 6538, 53.6 ± 1.8%; with S. aureus ATCC 29213 it was 73.7 ± 0.8%.

In the case of `C=CS(=O)(=O)c1ccccc1` [PVS, Phenyl vinyl sulfone, reference compound], the IC50 at S. aureus SrtA (10 µM S. aureus sortase A, preincubated 1 h at 37 °C, 50 µM dabcyl-QALPETGEE-edans substrate, read-out: IC50 (activity as sortase A inhibitors)) came to 736 µM.

Regarding `CCOC(=O)/C(=N\Nc1ccc(Cl)c(Cl)c1)C(=O)c1ccccc1`, the melting point fell in the range of 96 to 98 °C.

At S. aureus SrtA, `CN(C)CCC(=O)c1ccc(Cl)c(Cl)c1` [DPDAP, 1-(3,4-dichlorophenyl)-3-dimethylamino-1-propanone, reference compound] yielded a 50% inhibitory concentration (IC50) of 10 µM.

With `COc1ccc2cc3[n+](cc2c1OC)CCc1cc2c(cc1-3)OCO2` [BC, Berberine chloride, reference compound], the midpoint of inhibition on S. aureus SrtA, the IC50, lay at 120 µM.

With `CCOC(=O)/C(=N/Nc1cc(OC)c(OC)c(OC)c1)C(C)=O` [Compound 1e, Ethyl (2E)-3-Oxo-2-(2-(3,4,5-trimethoxyphenyl)hydrazinylidene)butanoate], the melting point fell in the range of 78 to 80 °C. At S. aureus SrtA, the midpoint of inhibition, the IC50, lay at 110 µM.

Compound `CCOC(=O)/C(=N/Nc1ccc(C)cc1)C(C)=O` [Compound 1f, Ethyl (2E)-3-Oxo-2-(2-(4-methylphenyl)hydrazinylidene)butanoate] yielded an IC50 on S. aureus SrtA of more than 500 µM.

For the compound `CC(=O)/C(=N/Nc1ccccc1)C(=O)O` [Compound 5a, (2Z)-3-Oxo-2-(2-phenylhydrazinylidene)butanoic acid], on S. aureus SrtA, inhibition was half-maximal at 80 µM (IC50). Also, the “Percentages of Inhibition of Biofilm Formation S. aureus 25923” value in the data set on S. aureus ATCC 25923 (100 µM) is recorded as 68.3 ± 2.0%. For the same compound, the inhibition at 100 µM in the data set on S. aureus ATCC 25923, with S. epidermidis RP62A, in the data set on S. aureus ATCC 6538 and in the data set with S. aureus ATCC 29213 was approximately 60% each time. The “Percentages of Inhibition of Biofilm Formation S. epidermidis RP62A” value in the data set on S. epidermidis RP62A (100 µM) is recorded as 61.5 ± 1.2%. In the data set on S. aureus ATCC 6538 (100 µM), the “Percentages of Inhibition of Biofilm Formation S. aureus 6538” value is listed as 60.1 ± 1.7%. Moreover, the “Percentages of Inhibition of Biofilm Formation S. aureus 29213” value in the data set with S. aureus ATCC 29213 (100 µM) stood at 62.3 ± 1.5%.

For the compound `CC(=O)/C(=N/Nc1ccccc1)C(N)=O` [Compound 7a, (2Z)-3-Oxo-2-(2-phenylhydrazinylidene)butanamide], the melting point was in the range of 134 to 136 °C. The compound also registered an IC50 against S. aureus SrtA of 120 µM. For the same compound, the inhibition at 100 µM in the data set with S. aureus ATCC 25923 is 42.1 ± 1.8%. Also, in the data set on S. epidermidis RP62A, the inhibition at 100 µM was 45.9 ± 2.1%. The inhibition at 100 µM in the data set with S. aureus ATCC 6538 came to 42.8 ± 1.1%. Moreover, the inhibition at 100 µM in the data set on S. aureus ATCC 29213 came to 48.2 ± 2.9%.

For the compound `CC(=O)/C(=N/Nc1ccc(C)cc1)C(=O)O` [Compound 5f, (2Z)-3-Oxo-2-(2-(4-methylphenyl)hydrazinylidene)butanoic acid], at S. aureus SrtA, the IC50 is 100 µM. Further, the inhibition at 100 µM was 33.8 ± 2.7% with S. aureus ATCC 25923, 24.4 ± 0.9% in the data set with S. epidermidis RP62A, 40.3 ± 1.9% with S. aureus ATCC 6538 and 40.8 ± 2.1% in the data set on S. aureus ATCC 29213.

`COc1cc(N/N=C(/C(C)=O)C(=O)O)cc(OC)c1OC` [Compound 5e, (2Z)-3-Oxo-2-(2-(3,4,5-trimethoxyphenyl)hydrazinylidene)butanoic acid] had a melting point of 150 to 152 °C. Half-maximal inhibition against S. aureus SrtA (IC50) required 92 µM. In addition, the inhibition at 100 µM in the data set with S. aureus ATCC 25923 amounted to 28.8 ± 2.9%. The inhibition at 100 µM in the data set with S. epidermidis RP62A was 27.1 ± 1.2%. Also, the inhibition at 100 µM in the data set with S. aureus ATCC 6538 came to 48.2 ± 0.9%. For the same compound, the inhibition at 100 µM in the data set with S. aureus ATCC 29213 amounted to 34.8 ± 1.3%.
